{
  "source": "paper PMC7734618",
  "about": "(Bioorganic & medicinal chemistry, 2008)",
  "format_in_all_cases": "cell-based",
  "key": {"[1]": {"assay": "Cytotoxicity in PHA-stimulated human PBM cells", "settings": "uninfected PHA-stimulated PBM cells"}, "[2]": {"assay": "in vitro", "settings": "human, CEM cells (T-lymphoblastoid cell line)"}, "[3]": {"assay": "Cytotoxicity in Vero cells", "settings": "African green monkey, Vero cells (kidney)"}, "[4]": {"system": "HIV-1LAI", "assay": "Anti-HIV activity against HIV-1LAI in human PBM cells", "settings": "HIV-1LAI in PBM cells"}},
  "note": "Where a name gives a salt, the structure may show the parent alone.",
  "data": [
    {"smiles": "Cc1cn([C@H]2CO[C@@H](COC(=O)[C@@H](N)Cc3ccccc3)O2)c(=O)[nH]c1=O", "note": "[Compound 14, Dioxolane thymine-5′-O-l-phenylalanyl ester hydrochloride]", "values": [
      {"measurement": "IC50 at 4 days", "setting": "[1]", "value": "> 100", "unit": "µM"},
      {"measurement": "IC50 at 3 days", "setting": "[2]", "value": "> 100", "unit": "µM"},
      {"measurement": "IC50 at 2 days", "setting": "[3]", "value": "> 100", "unit": "µM"}
    ]},
    {"smiles": "CCCCCCCC(=O)OC[C@@H]1OC[C@H](n2cc(C)c(=O)[nH]c2=O)O1", "note": "[Compound 3, Dioxolane thymine-5′-O-octanotic ester]", "values": [
      {"measurement": "IC50 at 4 days", "setting": "[1]", "value": "> 100", "unit": "µM"},
      {"measurement": "IC50 at 3 days", "setting": "[2]", "value": "> 100", "unit": "µM"}
    ]},
    {"smiles": "Cc1cn([C@H]2CO[C@@H](COC(=O)C3CC3)O2)c(=O)[nH]c1=O", "note": "[Compound 7, Dioxolane thymine-5′-O-cyclopropanecarboxylic ester]", "values": [
      {"measurement": "IC50 at 4 days", "setting": "[1]", "value": "> 100", "unit": "µM"},
      {"measurement": "IC50 at 3 days", "setting": "[2]", "value": "> 100", "unit": "µM"}
    ]},
    {"smiles": "Cc1cn([C@H]2CO[C@@H](COC(=O)[C@H](C)N)O2)c(=O)[nH]c1=O", "note": "[Compound 13, Dioxolane thymine-5′-O-l-alanyl ester hydrochloride]", "values": [
      {"measurement": "IC50 at 4 days", "setting": "[1]", "value": "> 100", "unit": "µM"},
      {"measurement": "IC50 at 3 days", "setting": "[2]", "value": "> 100", "unit": "µM"}
    ]},
    {"smiles": "CC(=O)OC[C@@H]1OC[C@H](n2cc(C)c(=O)[nH]c2=O)O1", "note": "[Compound 1, Dioxolane thymine-5′-O-acetic ester]", "values": [
      {"measurement": "IC50 at 4 days", "setting": "[1]", "value": "> 100", "unit": "µM"}
    ]},
    {"smiles": "Cc1cn([C@H]2CO[C@@H](COC(=O)[C@H](N)C(C)C)O2)c(=O)[nH]c1=O", "note": "[Compound 17, Dioxolane thymine-5′-O-d-valyl ester hydrochloride]", "values": [
      {"measurement": "IC50 at 4 days", "setting": "[1]", "value": "> 100", "unit": "µM"},
      {"measurement": "IC50 at 3 days", "setting": "[2]", "value": "> 100", "unit": "µM"},
      {"measurement": "IC50 at 2 days", "setting": "[3]", "value": "> 100", "unit": "µM"}
    ]},
    {"smiles": "Cc1cn([C@H]2CO[C@@H](COC(=O)C3CCCCC3)O2)c(=O)[nH]c1=O", "note": "[Compound 8, Dioxolane thymine-5′-O-cyclohexanecarboxylic ester]", "values": [
      {"measurement": "IC50 at 4 days", "setting": "[1]", "value": "> 100", "unit": "µM"},
      {"measurement": "IC50 at 3 days", "setting": "[2]", "value": "> 100", "unit": "µM"}
    ]},
    {"smiles": "CCCCCCCCCCCCCCCC(=O)OC[C@@H]1OC[C@H](n2cc(C)c(=O)[nH]c2=O)O1", "note": "[Compound 5, Dioxolane thymine-5′-O-palmitic ester]", "values": [
      {"measurement": "IC50 at 4 days", "setting": "[1]", "value": "> 100", "unit": "µM"},
      {"measurement": "IC50 at 3 days", "setting": "[2]", "value": "> 100", "unit": "µM"}
    ]},
    {"smiles": "Cc1cn([C@H]2CO[C@@H](COC(=O)C(C)(C)C)O2)c(=O)[nH]c1=O", "note": "[Compound 6, Dioxolane thymine-5′-O-pivalic ester]", "values": [
      {"measurement": "IC50 at 4 days", "setting": "[1]", "value": "> 100", "unit": "µM"},
      {"measurement": "IC50 at 3 days", "setting": "[2]", "value": "> 100", "unit": "µM"}
    ]},
    {"smiles": "Cc1cn([C@H]2CO[C@@H](COC(=O)[C@@H](N)CC(C)C)O2)c(=O)[nH]c1=O", "note": "[Compound 18, Dioxolane thymine-5′-O-l-leucinyl ester hydrochloride]", "values": [
      {"measurement": "IC50 at 4 days", "setting": "[1]", "value": "> 100", "unit": "µM"},
      {"measurement": "IC50 at 3 days", "setting": "[2]", "value": "> 100", "unit": "µM"}
    ]},
    {"smiles": "CCCCC(=O)OC[C@@H]1OC[C@H](n2cc(C)c(=O)[nH]c2=O)O1", "note": "[Compound 2, Dioxolane thymine-5′-O-valeric ester]", "values": [
      {"measurement": "IC50 at 4 days", "setting": "[1]", "value": "> 100", "unit": "µM"},
      {"measurement": "IC50 at 3 days", "setting": "[2]", "value": "> 100", "unit": "µM"}
    ]},
    {"smiles": "CCCCCCCCCCCC(=O)OC[C@@H]1OC[C@H](n2cc(C)c(=O)[nH]c2=O)O1", "note": "[Compound 4, Dioxolane thymine-5′-O-dodecanoic ester]", "values": [
      {"measurement": "IC50 at 4 days", "setting": "[1]", "value": "> 100", "unit": "µM"},
      {"measurement": "IC50 at 3 days", "setting": "[2]", "value": "> 100", "unit": "µM"}
    ]},
    {"smiles": "Cc1cn([C@H]2CO[C@@H](COC(=O)CN)O2)c(=O)[nH]c1=O", "note": "[Compound 11, Dioxolane thymine-5′-O-glycyl ester hydrochloride]", "values": [
      {"measurement": "IC50 at 4 days", "setting": "[1]", "value": "> 100", "unit": "µM"},
      {"measurement": "IC50 at 3 days", "setting": "[2]", "value": "> 100", "unit": "µM"}
    ]},
    {"smiles": "Cc1cn([C@H]2CO[C@@H](COC(=O)[C@H](N)Cc3ccccc3)O2)c(=O)[nH]c1=O", "note": "[Compound 15, Dioxolane thymine-5′-O-d-phenylalanyl ester hydrochloride]", "values": [
      {"measurement": "IC50 at 4 days", "setting": "[1]", "value": "> 100", "unit": "µM"},
      {"measurement": "IC50 at 3 days", "setting": "[2]", "value": "> 100", "unit": "µM"},
      {"measurement": "IC50 at 2 days", "setting": "[3]", "value": "> 100", "unit": "µM"}
    ]},
    {"smiles": "Cc1cn([C@H]2CO[C@@H](COC(=O)[C@@H](N)C(C)C)O2)c(=O)[nH]c1=O", "note": "[Compound 16, Dioxolane thymine-5′-O-l-valyl ester hydrochloride]", "values": [
      {"measurement": "IC50 at 4 days", "setting": "[1]", "value": "> 100", "unit": "µM"},
      {"measurement": "IC50 at 3 days", "setting": "[2]", "value": "> 100", "unit": "µM"},
      {"measurement": "IC50 at 2 days", "setting": "[3]", "value": "> 100", "unit": "µM"}
    ]},
    {"smiles": "Cc1cn([C@H]2CO[C@@H](COCOC(=O)C(C)(C)C)O2)c(=O)[nH]c1=O", "note": "[Compound 9, Dioxolane thymine-5′-O-pivaloyloxymethyl ether]", "values": [
      {"measurement": "Anti-HIV activity compared with parent drug DOT (in words)", "setting": "[4]", "value": "slightly reduced antiviral activity"},
      {"measurement": "IC50 at 4 days", "setting": "[1]", "value": "> 100", "unit": "µM"},
      {"measurement": "IC50 at 3 days", "setting": "[2]", "value": "> 100", "unit": "µM"}
    ]}
  ]
}
